# According to PubChem BioAssay (NCI):
#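 Tested at 5 concentrations; 48 h exposure; 96-well plates; endpoints linearly interpolated, else capped at highest concentration. TGI is the concentration that stops growth completely.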
# Assays:
# Assay in all cases: NCI tumour cell line growth inhibition, 48 h
# SN12C renal = tested on: SN12C renal
# TK-10 renal = tested on: TK-10 renal
# RXF 393 renal = tested on: RXF 393 renal
# RPMI-8226 leukemia = tested on: RPMI-8226 leukemia
# NCI-H23 lung = tested on: NCI-H23 lung
# SF-268 CNS = tested on: SF-268 CNS
# SNB-19 CNS = tested on: SNB-19 CNS
# SF-295 CNS = tested on: SF-295 CNS
# ACHN renal = tested on: ACHN renal
# HOP-18 NSCLC = tested on: HOP-18 NSCLC
# KM12 colon = tested on: KM12 colon
# SW-620 colon = tested on: SW-620 colon
# SK-MEL-2 melanoma = tested on: SK-MEL-2 melanoma
# HCT-15 colon = tested on: HCT-15 colon
# NCI-H460 lung = tested on: NCI-H460 lung
# HOP-92 NSCLC = tested on: HOP-92 NSCLC
# 786-0 renal = tested on: 786-0 renal
# DMS 114 small cell lung = tested on: DMS 114 small cell lung
# CAKI-1 renal = tested on: CAKI-1 renal
# SK-MEL-28 melanoma = tested on: SK-MEL-28 melanoma
# HCT-116 colon = tested on: HCT-116 colon
# DLD-1 colon = tested on: DLD-1 colon
# MALME-3M melanoma = tested on: MALME-3M melanoma
# UACC-62 melanoma = tested on: UACC-62 melanoma
# SK-MEL-5 melanoma = tested on: SK-MEL-5 melanoma
# XF 498 CNS = tested on: XF 498 CNS
# SNB-75 CNS = tested on: SNB-75 CNS
# HL-60(TB) leukemia = tested on: HL-60(TB) leukemia
# NCI-H226 lung = tested on: NCI-H226 lung
# M19-MEL melanoma = tested on: M19-MEL melanoma
# SF-539 CNS = tested on: SF-539 CNS
# M14 melanoma = tested on: M14 melanoma
# HOP-62 NSCLC = tested on: HOP-62 NSCLC
# OVCAR-8 ovarian = tested on: OVCAR-8 ovarian
# DMS 273 small cell lung = tested on: DMS 273 small cell lung
# IGROV1 ovarian = tested on: IGROV1 ovarian
# U251 CNS = tested on: U251 CNS
# K-562 leukemia = tested on: K-562 leukemia
# SNB-78 CNS = tested on: SNB-78 CNS
# HCC-2998 colon = tested on: HCC-2998 colon
# CCRF-CEM leukemia = tested on: CCRF-CEM leukemia
# LOX IMVI melanoma = tested on: LOX IMVI melanoma
# OVCAR-3 ovarian = tested on: OVCAR-3 ovarian
# A549 NSCLC = tested on: A549 NSCLC
# EKVX NSCLC = tested on: EKVX NSCLC
# SK-OV-3 ovarian = tested on: SK-OV-3 ovarian
# A498 renal = tested on: A498 renal
# HT29 colon = tested on: HT29 colon
# UO-31 renal = tested on: UO-31 renal
# KM20L2 colon = tested on: KM20L2 colon
# OVCAR-5 ovarian = tested on: OVCAR-5 ovarian
# LXFL 529 NSCLC = tested on: LXFL 529 NSCLC
# COLO 205 colon = tested on: COLO 205 colon
# UACC-257 melanoma = tested on: UACC-257 melanoma
# NCI-H522 lung = tested on: NCI-H522 lung
# OVCAR-4 ovarian = tested on: OVCAR-4 ovarian
# SR leukemia = tested on: SR leukemia
# T-47D breast = tested on: T-47D breast
# BT-549 breast = tested on: BT-549 breast
# MDA-MB-435 = tested on: MDA-MB-435
# HS 578T breast = tested on: HS 578T breast
# MOLT-4 leukemia = tested on: MOLT-4 leukemia
# DU-145 prostate = tested on: DU-145 prostate
# MCF7 breast = tested on: MCF7 breast
smiles,measurement,setting,value
O=C(NCc1ccccc1)c1cc2ccc(O)c(O)c2cn1,TGI,SN12C renal,31.7 µM
same,TGI,TK-10 renal,> 100 µM
same,TGI,RXF 393 renal,30.5 µM
same,TGI,RPMI-8226 leukemia,> 100 µM
same,TGI,NCI-H23 lung,25.9 µM
same,TGI,SF-268 CNS,29.7 µM
same,TGI,SNB-19 CNS,> 100 µM
same,TGI,SF-295 CNS,31.5 µM
same,TGI,ACHN renal,29.4 µM
same,TGI,HOP-18 NSCLC,44.5 µM
same,TGI,KM12 colon,> 100 µM
same,TGI,SW-620 colon,37.4 µM
same,TGI,SK-MEL-2 melanoma,25.4 µM
same,TGI,HCT-15 colon,> 100 µM
same,TGI,NCI-H460 lung,39.1 µM
same,TGI,HOP-92 NSCLC,33.3 µM
same,TGI,786-0 renal,33.1 µM
same,TGI,DMS 114 small cell lung,26.8 µM
same,TGI,CAKI-1 renal,33.6 µM
same,TGI,SK-MEL-28 melanoma,30.3 µM
same,TGI,HCT-116 colon,32.1 µM
same,TGI,DLD-1 colon,37.8 µM
same,TGI,MALME-3M melanoma,30.4 µM
same,TGI,UACC-62 melanoma,33.5 µM
same,TGI,SK-MEL-5 melanoma,23.3 µM
same,TGI,XF 498 CNS,31.7 µM
same,TGI,SNB-75 CNS,32.9 µM
same,TGI,HL-60(TB) leukemia,> 100 µM
same,TGI,NCI-H226 lung,> 100 µM
same,TGI,M19-MEL melanoma,3.23 µM
same,TGI,SF-539 CNS,32.6 µM
same,TGI,M14 melanoma,19.3 µM
same,TGI,HOP-62 NSCLC,47.9 µM
same,TGI,OVCAR-8 ovarian,23.9 µM
same,TGI,DMS 273 small cell lung,32.3 µM
same,TGI,IGROV1 ovarian,44.5 µM
same,TGI,U251 CNS,52.8 µM
same,TGI,K-562 leukemia,> 100 µM
same,TGI,SNB-78 CNS,40.6 µM
same,TGI,HCC-2998 colon,> 100 µM
same,TGI,CCRF-CEM leukemia,> 100 µM
same,TGI,LOX IMVI melanoma,16.2 µM
same,TGI,OVCAR-3 ovarian,41.6 µM
same,TGI,A549 NSCLC,> 100 µM
same,TGI,EKVX NSCLC,> 100 µM
same,TGI,SK-OV-3 ovarian,> 100 µM
same,TGI,A498 renal,> 100 µM
same,TGI,HT29 colon,> 100 µM
same,TGI,UO-31 renal,36.5 µM
same,TGI,KM20L2 colon,> 100 µM
same,TGI,OVCAR-5 ovarian,58.3 µM
same,TGI,LXFL 529 NSCLC,30.6 µM
same,TGI,COLO 205 colon,> 100 µM
same,TGI,UACC-257 melanoma,29.1 µM
same,TGI,NCI-H522 lung,30.9 µM
same,TGI,OVCAR-4 ovarian,30.3 µM
same,TGI,SR leukemia,> 100 µM
O=C(O)COc1ccc(C(=O)/C(SS/C(C(=O)c2ccc(OCC(=O)O)c(Cl)c2Cl)=C2\C=C(c3ccc(F)cc3)SS2)=C2/C=C(c3ccc(F)cc3)SS2)c(Cl)c1Cl,TGI,SN12C renal,38.7 µM
same,TGI,TK-10 renal,99.2 µM
same,TGI,RPMI-8226 leukemia,31.5 µM
same,TGI,NCI-H23 lung,33.7 µM
same,TGI,SF-268 CNS,23.1 µM
same,TGI,SNB-19 CNS,53.7 µM
same,TGI,SF-295 CNS,69.8 µM
same,TGI,ACHN renal,56 µM
same,TGI,HOP-18 NSCLC,43.6 µM
same,TGI,KM12 colon,32.6 µM
same,TGI,SW-620 colon,36.3 µM
same,TGI,T-47D breast,31.3 µM
same,TGI,SK-MEL-2 melanoma,34.7 µM
same,TGI,HCT-15 colon,28.3 µM
same,TGI,NCI-H460 lung,49.1 µM
same,TGI,BT-549 breast,71.5 µM
same,TGI,HOP-92 NSCLC,15.4 µM
same,TGI,MDA-MB-435,> 100 µM
same,TGI,HS 578T breast,19 µM
same,TGI,786-0 renal,> 57 µM
same,TGI,DMS 114 small cell lung,12.7 µM
same,TGI,CAKI-1 renal,> 77.9 µM
same,TGI,SK-MEL-28 melanoma,38.8 µM
same,TGI,HCT-116 colon,25.6 µM
same,TGI,DLD-1 colon,> 53.7 µM
same,TGI,MALME-3M melanoma,77.3 µM
same,TGI,UACC-62 melanoma,23.9 µM
same,TGI,SK-MEL-5 melanoma,51.5 µM
same,TGI,XF 498 CNS,27 µM
same,TGI,SNB-75 CNS,27.4 µM
same,TGI,HL-60(TB) leukemia,6.03 µM
same,TGI,NCI-H226 lung,40.4 µM
same,TGI,M19-MEL melanoma,44.6 µM
same,TGI,SF-539 CNS,26.9 µM
same,TGI,M14 melanoma,54.8 µM
same,TGI,HOP-62 NSCLC,> 84.8 µM
same,TGI,OVCAR-8 ovarian,55.8 µM
same,TGI,DMS 273 small cell lung,27.9 µM
same,TGI,IGROV1 ovarian,41.7 µM
same,TGI,U251 CNS,24.7 µM
same,TGI,K-562 leukemia,32.6 µM
same,TGI,SNB-78 CNS,43.1 µM
same,TGI,HCC-2998 colon,> 100 µM
same,TGI,CCRF-CEM leukemia,18.1 µM
same,TGI,LOX IMVI melanoma,12.9 µM
same,TGI,OVCAR-3 ovarian,20.7 µM
same,TGI,A549 NSCLC,> 93.4 µM
same,TGI,MOLT-4 leukemia,31.2 µM
same,TGI,DU-145 prostate,> 100 µM
same,TGI,EKVX NSCLC,> 81.4 µM
same,TGI,SK-OV-3 ovarian,> 88.7 µM
same,TGI,A498 renal,77.5 µM
same,TGI,MCF7 breast,> 100 µM
same,TGI,HT29 colon,70.6 µM
same,TGI,UO-31 renal,36.4 µM
same,TGI,KM20L2 colon,> 95.8 µM
same,TGI,OVCAR-5 ovarian,74.7 µM
same,TGI,LXFL 529 NSCLC,13.6 µM
same,TGI,COLO 205 colon,25 µM
same,TGI,UACC-257 melanoma,68.8 µM
same,TGI,NCI-H522 lung,8.44 µM
same,TGI,OVCAR-4 ovarian,40.3 µM
same,TGI,SR leukemia,13.4 µM
